# Assay results reported in patent publication US11897862B2 (Gilead Sciences, Inc., priority 2022, dated 2024).
# Assays:
# Format in all cases: cell-based
# IKZF1 = target: T1, IKZF1 (Homo sapiens, UniProt Q13422+Q96SW2); assay: HEK293 HiBiT in vitro degradation of IKZF1; details: for DC50: 18-24 hr incubation, normalized to DMSO control, read-out: IKZF1 EC50; for Dmax: HEK293, HEK293 HiBiT
# T1 construct: expressed in transfected cells
# How it was run: (§1)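 Dox-inducible ([…] final, overnight) HEK293 Flp-In T-REx, single-copy target-HiBiT C-terminal fusion; compound serial dilution, 18-24 h, 37 °C; lytic Nano-Glo luminescence; EC50, Dmax.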
# IKZF2 [1] = target: T2, IKZF2 (Homo sapiens, UniProt Q96SW2+Q9UKS7); assay: Human whole blood IKZF2 degradation (flow cytometry, CD4/CD25/Foxp3+ Treg cells); design: endogenous in cells; details: 24 hrs incubation, IKZF2 MFI in CD4/CD25/Foxp3+ Treg cells, flow cytometry; for DC50: read-out: IKZF2 EC50
# Experimental: In vitro IKZF2 potency was assessed in human whole blood using a fluorescence activated cell sorting assay. 50 μL of freshly collected blood from healthy human volunteers was incubated with Immunocult CD3/CD28 activator (Stemcell Technologies) and solution of testing compounds (serially-diluted) for 24 hrs hours at 37° C. in 384 well plates. The treated red blood cells were removed by adding lysis buffer (BD cat #558049) then the cells were fixed, permeabilized, and stained with anti-CD4 (BD cat #564419), anti-Foxp3 (Invitrogen cat #48-4777-42), anti-IKZF1 (Cell Signaling Tech. cat #33462S), and anti-IKZF2(Cell Signaling Tech. cat #65432S) antibodies. The median fluorescent intensity (MFI) of IKZF2 signal from CD4/CD25/Foxp3+ Treg cells and MFI of IKZF1 signal from CD4+ T cells were quantified in the same samples by flow cytometry using an Attune instrument. EC50 and Dmax of each compound was determined by plotting the MFI and DMSO treated wells were used as control. Asterisks (*) indicate examples for which data represents an average of n≥3 repeat experiments.
# Target sequence in this assay (Q9UKS7 whole entry): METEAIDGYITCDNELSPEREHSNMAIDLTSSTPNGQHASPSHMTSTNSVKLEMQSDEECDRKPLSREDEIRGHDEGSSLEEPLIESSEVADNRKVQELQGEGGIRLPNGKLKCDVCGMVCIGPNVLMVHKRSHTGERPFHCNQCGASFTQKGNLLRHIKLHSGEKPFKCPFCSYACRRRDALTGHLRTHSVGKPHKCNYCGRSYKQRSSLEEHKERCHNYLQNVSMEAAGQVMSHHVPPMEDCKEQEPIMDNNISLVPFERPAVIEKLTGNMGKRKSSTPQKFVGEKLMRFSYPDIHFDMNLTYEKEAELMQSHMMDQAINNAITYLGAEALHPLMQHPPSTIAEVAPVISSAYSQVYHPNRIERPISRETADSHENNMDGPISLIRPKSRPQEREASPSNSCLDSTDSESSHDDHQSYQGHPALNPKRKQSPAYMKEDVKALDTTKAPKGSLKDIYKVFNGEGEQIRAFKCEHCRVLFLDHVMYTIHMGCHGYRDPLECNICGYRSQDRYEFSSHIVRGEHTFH
# Target sequence in this assay (Q96SW2 whole entry): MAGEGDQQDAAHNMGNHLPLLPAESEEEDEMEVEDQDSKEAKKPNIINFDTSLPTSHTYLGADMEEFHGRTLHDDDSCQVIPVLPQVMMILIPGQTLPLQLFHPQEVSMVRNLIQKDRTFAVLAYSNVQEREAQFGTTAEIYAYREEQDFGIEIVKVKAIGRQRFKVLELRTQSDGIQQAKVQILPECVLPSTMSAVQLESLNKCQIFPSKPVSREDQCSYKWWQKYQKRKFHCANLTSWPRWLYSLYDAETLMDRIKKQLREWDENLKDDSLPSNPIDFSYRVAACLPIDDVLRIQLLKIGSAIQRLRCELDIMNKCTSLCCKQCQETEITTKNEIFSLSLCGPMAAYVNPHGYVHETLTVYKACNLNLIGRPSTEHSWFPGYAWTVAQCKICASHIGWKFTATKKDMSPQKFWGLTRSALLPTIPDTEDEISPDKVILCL
# Target sequence in this assay (Q16531 whole entry partner): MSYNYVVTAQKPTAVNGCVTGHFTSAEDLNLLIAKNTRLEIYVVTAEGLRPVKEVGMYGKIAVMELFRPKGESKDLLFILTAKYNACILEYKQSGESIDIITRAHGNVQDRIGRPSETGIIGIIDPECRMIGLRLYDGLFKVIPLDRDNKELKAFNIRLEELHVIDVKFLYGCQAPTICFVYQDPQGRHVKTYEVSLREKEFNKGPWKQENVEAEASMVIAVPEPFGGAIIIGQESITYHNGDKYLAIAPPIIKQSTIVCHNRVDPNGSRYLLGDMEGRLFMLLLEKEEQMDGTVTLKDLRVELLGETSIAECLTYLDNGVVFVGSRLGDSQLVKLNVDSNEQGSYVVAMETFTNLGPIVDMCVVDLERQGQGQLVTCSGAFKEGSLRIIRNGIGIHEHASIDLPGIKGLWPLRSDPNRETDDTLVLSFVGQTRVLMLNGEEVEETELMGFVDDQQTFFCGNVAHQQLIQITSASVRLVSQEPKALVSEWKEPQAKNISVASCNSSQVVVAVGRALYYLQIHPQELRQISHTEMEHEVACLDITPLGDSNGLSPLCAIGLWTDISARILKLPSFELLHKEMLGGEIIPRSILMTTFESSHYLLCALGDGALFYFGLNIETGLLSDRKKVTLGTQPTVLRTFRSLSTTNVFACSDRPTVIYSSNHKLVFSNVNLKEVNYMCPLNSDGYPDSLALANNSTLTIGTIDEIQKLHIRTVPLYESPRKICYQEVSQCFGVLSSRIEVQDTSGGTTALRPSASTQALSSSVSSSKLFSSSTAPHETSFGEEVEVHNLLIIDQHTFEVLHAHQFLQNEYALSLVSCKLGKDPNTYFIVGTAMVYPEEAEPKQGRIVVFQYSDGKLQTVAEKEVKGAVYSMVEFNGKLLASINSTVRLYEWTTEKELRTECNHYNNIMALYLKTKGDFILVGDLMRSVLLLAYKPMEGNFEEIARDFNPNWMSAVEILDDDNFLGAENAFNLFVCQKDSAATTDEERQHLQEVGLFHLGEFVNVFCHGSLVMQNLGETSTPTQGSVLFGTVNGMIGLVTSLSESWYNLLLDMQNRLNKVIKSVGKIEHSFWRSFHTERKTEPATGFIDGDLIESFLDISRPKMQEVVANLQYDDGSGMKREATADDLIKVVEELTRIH
# IKZF2 [2] = target: T2, IKZF2; assay: HEK293 HiBiT in vitro degradation of IKZF2; design: expressed in transfected cells; details: for DC50 / IKZF2 Dmax: HEK293 HiBiT; for DC50: 18-24 hr incubation, normalized to DMSO control, read-out: IKZF2 EC50; for IKZF2 Dmax / Dmax: maximum degradation at the highest concentration tested; for Dmax: HEK293, HEK293 HiBiT
# How it was run: as §1
# Target sequence in this assay (Q9UKS7 1-500 isoform Q9UKS7-2): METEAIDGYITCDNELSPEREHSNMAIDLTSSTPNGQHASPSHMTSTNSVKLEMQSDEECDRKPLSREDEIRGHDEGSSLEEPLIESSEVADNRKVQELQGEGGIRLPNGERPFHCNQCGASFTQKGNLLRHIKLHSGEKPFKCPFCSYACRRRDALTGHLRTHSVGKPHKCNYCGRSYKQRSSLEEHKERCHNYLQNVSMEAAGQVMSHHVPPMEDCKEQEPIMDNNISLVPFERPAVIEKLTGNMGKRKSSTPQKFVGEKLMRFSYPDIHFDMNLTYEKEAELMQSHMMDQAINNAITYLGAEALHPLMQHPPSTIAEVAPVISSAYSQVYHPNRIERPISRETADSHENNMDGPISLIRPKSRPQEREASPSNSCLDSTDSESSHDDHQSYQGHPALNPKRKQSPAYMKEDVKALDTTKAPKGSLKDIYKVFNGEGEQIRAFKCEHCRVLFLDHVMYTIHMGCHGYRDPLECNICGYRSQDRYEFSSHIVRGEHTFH
# Target sequence in this assay (Q96SW2 whole entry): as the sequence (Q96SW2 whole entry) above
# Target sequence in this assay (Q16531 whole entry partner): as the sequence (Q16531 whole entry partner) above
# [3] = maximum degradation at the highest concentration tested
# T1 sequence (Q13422 whole entry): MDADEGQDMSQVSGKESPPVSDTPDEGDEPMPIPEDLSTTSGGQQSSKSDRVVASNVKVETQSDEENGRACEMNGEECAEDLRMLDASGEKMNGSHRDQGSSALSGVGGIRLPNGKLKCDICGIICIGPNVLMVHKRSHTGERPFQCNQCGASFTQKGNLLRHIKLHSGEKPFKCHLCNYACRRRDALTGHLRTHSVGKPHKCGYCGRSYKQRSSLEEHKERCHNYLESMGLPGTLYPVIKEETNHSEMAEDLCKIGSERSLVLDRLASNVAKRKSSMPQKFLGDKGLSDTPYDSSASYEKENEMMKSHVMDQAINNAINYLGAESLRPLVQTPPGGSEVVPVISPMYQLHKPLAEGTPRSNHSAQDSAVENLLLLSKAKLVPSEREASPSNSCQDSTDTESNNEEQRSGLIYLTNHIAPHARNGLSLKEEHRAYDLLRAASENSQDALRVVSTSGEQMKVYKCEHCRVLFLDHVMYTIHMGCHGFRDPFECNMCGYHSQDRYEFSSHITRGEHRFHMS
# T1 sequence (Q96SW2 whole entry): as the sequence (Q96SW2 whole entry) above
# T1 sequence (Q16531 whole entry partner): as the sequence (Q16531 whole entry partner) above
SMILES,DC50 (IKZF1; HEK293 HiBiT),"IKZF1 Dmax (IKZF1; HEK293 HiBiT, maximum degradation at the highest concentration tested)",Dmax (IKZF2 [1]),DC50 (IKZF2 [1]),DC50 (IKZF2 [2]),IKZF2 Dmax (IKZF2 [2]),Dmax (IKZF2 [2]),Dmax (IKZF1; [3]),IKZF2 Dmax (IKZF2 [1])
"CC(N[C@H]1CCCC[C@@H]1Cc1ccc2c(c1)CN(C1CCC(=O)NC1=O)C2=O)C1CC(F)(F)C1 (single isomer, unassigned) [Example 136]",> 1 µM,–,97%,0.006 µM,0.004 µM,–,97%,–,–
"CC(N[C@H]1CCCC[C@@H]1Cc1ccc2c(c1)CN(C1CCC(=O)NC1=O)C2=O)C1CC(F)(F)C1 (single isomer, unassigned) [Example 137]",0.054 µM,–,–,0.002 µM,0.001 µM,97%,–,34%,99%
"O=C1CCC(N2Cc3cc(C[C@H]4CCCC[C@@H]4NC4CCC(OC(F)(F)F)CC4)ccc3C2=O)C(=O)N1 (single isomer, unassigned) [Example 145]",0.055 µM,–,100%,0.004 µM,0.002 µM,–,96%,44%,–
"CC(N[C@H]1CCCO[C@@H]1Cc1ccc2c(c1F)CN(C1CCC(=O)NC1=O)C2=O)C1CCC1 (single isomer, unassigned) [Example 247]",> 1 µM,–,95%,0.004 µM,0.005 µM,–,97%,–,–
"CC(N[C@H]1CCCC[C@@H]1Cc1ccc2c(c1)CN(C1CCC(=O)NC1=O)C2=O)C1(C#N)CC1 (single isomer, unassigned) [Example 256]",> 1 µM,–,95%,0.01 µM,–,–,–,–,–
CC(N[C@H]1CCCC[C@@H]1Cc1ccc2c(c1)CN(C1CCC(=O)NC1=O)C2=O)C1(C(F)F)CC1 (stereo partly drawn) [Example 312],> 1 µM,–,–,–,0.009 µM,95%,–,–,–
"O=C1CCC(N2Cc3cc(C[C@H]4CC(F)(F)CC[C@@H]4NC4CCCCC4)ccc3C2=O)C(=O)N1 (stereo partly drawn) [Example 313, 3-(5-(((1S,2S)-2-(cyclohexylamino)-5,5-difluorocyclohexyl)methyl)-1-oxoisoindolin-2-yl)piperidine-2,6-dione]",> 1 µM,–,–,–,0.027 µM,–,88%,–,–
"O=C1CCC(N2Cc3cc(C[C@H]4C=C(F)CC[C@@H]4NC4CCCCC4)ccc3C2=O)C(=O)N1 (stereo partly drawn) [Example 314, 3-(5-(((1S,6S)-6-(cyclohexylamino)-3-fluorocyclohex-2-en-1-yl)methyl)-1-oxoisoindolin-2-yl)piperidine-2,6-dione]",0.653 µM,–,–,–,0.09 µM,–,70%,30%,–
CC(C)N[C@H]1CCC(F)(F)C[C@@H]1Cc1ccc2c(c1)CN(C1CCC(=O)NC1=O)C2=O (stereo partly drawn) [Example 315],> 1 µM,–,–,–,0.028 µM,–,88%,–,–
"O=C1CCC(N2Cc3cc(C[C@H]4CCCC[C@@H]4NC4CCC(OC(F)F)CC4)ccc3C2=O)C(=O)N1 (stereo partly drawn) [Example 323, 3-(5-(((1R,2S)-2-((4-(difluoromethoxy)cyclohexyl)amino)cyclohexyl)methyl)-1-oxoisoindolin-2-yl)piperidine-2,6-dione]",0.05 µM,–,–,–,0.003 µM,–,96%,45%,–
O=C1CCC(N2Cc3cc(C[C@H]4C[C@@H](F)CC[C@@H]4NC4CCCCC4)ccc3C2=O)C(=O)N1 (stereo partly drawn) [Example 342],> 1 µM,–,–,–,0.018 µM,–,86%,–,–
O=C1CCC(N2Cc3cc(C[C@H]4CCC(F)(F)C[C@@H]4NC4CCC(F)(F)CC4)ccc3C2=O)C(=O)N1 (stereo partly drawn) [Example 345],0.174 µM,–,–,–,0.004 µM,–,97%,56%,–
O=C1CC[C@H](N2Cc3cc(C[C@H]4CCCC[C@@H]4NC4CCC(F)(F)CC4)cc(F)c3C2=O)C(=O)N1 [Example 347],> 1 µM,–,–,–,0.038 µM,–,75%,–,–
CC(C)N[C@H]1CC(F)(F)CC[C@@H]1Cc1ccc2c(c1)CN(C1CCC(=O)NC1=O)C2=O (stereo partly drawn) [Example 348],0.062 µM,–,–,–,0.002 µM,–,97%,39%,–
CC(N[C@H]1CC(F)(F)CC[C@@H]1Cc1ccc2c(c1)CN(C1CCC(=O)NC1=O)C2=O)C1CCOCC1 (stereo partly drawn) [Example 349],0.089 µM,–,–,–,0.011 µM,–,92%,42%,–
O=C1CCC(N2Cc3cc(C[C@H]4CC[C@@H](F)C[C@@H]4NC4CCCCC4)ccc3C2=O)C(=O)N1 (stereo partly drawn) [Example 355],> 1 µM,–,–,–,0.005 µM,–,91%,–,–
O=C1CCC(N2Cc3c(ccc(C[C@H]4OCCC[C@@H]4NC4CCc5cn[nH]c5C4)c3F)C2=O)C(=O)N1 (stereo partly drawn) [Example 374],> 1 µM,–,–,–,0.058 µM,–,98%,–,–
"O=C1CCC(N2Cc3c(ccc(O[C@H]4CCCC[C@@H]4NC4CCC(F)(F)CC4)c3F)C2=O)C(=O)N1 (stereo partly drawn) [Reference Compound B-1, reference compound]",> 1 µM,–,–,–,0.006 µM,–,97%,–,–

# Results, then the compound that gave them:
DC50 (IKZF1; HEK293 HiBiT),"IKZF1 Dmax (IKZF1; HEK293 HiBiT, maximum degradation at the highest concentration tested)",Dmax (IKZF2 [1]),DC50 (IKZF2 [1]),DC50 (IKZF2 [2]),IKZF2 Dmax (IKZF2 [2]),Dmax (IKZF2 [2]),Dmax (IKZF1; [3]),IKZF2 Dmax (IKZF2 [1]),SMILES
0.057 µM,45%,97%,0.002 µM,0.002 µM,96%,–,–,–,"O=C1CCC(N2Cc3cc(C[C@H]4CCCC[C@@H]4NC4CCC(C(F)(F)F)CC4)ccc3C2=O)C(=O)N1 (single isomer, unassigned) [Example 122]"
> 1 µM,–,–,–,0.02 µM,–,96%,–,–,CC(N[C@H]1CCCO[C@@H]1Cc1ccc2c(c1F)CN(C1CCC(=O)NC1=O)C2=O)C1COC1 (stereo partly drawn) [Example 318]
> 1 µM,–,–,–,0.024 µM,95%,–,–,–,CC(N[C@H]1CCCO[C@@H]1Cc1ccc2c(c1F)CN(C1CCC(=O)NC1=O)C2=O)C1COC1 (stereo partly drawn) [Example 319]
> 1 µM,–,–,–,0.011 µM,–,93%,–,–,"CC(CCC(F)F)N[C@H]1CCCO[C@@H]1Cc1ccc2c(c1F)CN(C1CCC(=O)NC1=O)C2=O (stereo partly drawn) [Example 320, 3-(5-(((2R,3S)-3-((5,5-difluoropentan-2-yl)amino)tetrahydro-2H-pyran-2-yl)methyl)-4-fluoro-1-oxoisoindolin-2-yl)piperidine-2,6-dione]"
0.371 µM,–,–,–,0.006 µM,–,94%,44%,–,CC(CCCC(F)(F)F)N[C@H]1CCCO[C@@H]1Cc1ccc2c(c1F)CN(C1CCC(=O)NC1=O)C2=O (stereo partly drawn) [Example 321]
> 1 µM,–,–,–,0.054 µM,–,72%,–,–,"CCC(C)(C)N[C@H]1CCCC[C@@H]1Cc1ccc2c(c1)CN(C1CCC(=O)NC1=O)C2=O (stereo partly drawn) [Example 322, 3-(1-oxo-5-(((1R,2S)-2-(tert-pentylamino)cyclohexyl)methyl)isoindolin-2-yl)piperidine-2,6-dione]"
> 1 µM,–,–,–,0.076 µM,–,55%,–,–,O=C1CCC(N2Cc3cc(C[C@H]4CCCCC[C@@H]4NC4CCC(F)(F)CC4)ccc3C2=O)C(=O)N1 (stereo partly drawn) [Example 340]
> 1 µM,–,–,–,0.021 µM,–,87%,–,–,O=C1CCC(N2Cc3cc(C[C@H]4C[C@@H](F)CC[C@@H]4NC4CCC(F)(F)CC4)ccc3C2=O)C(=O)N1 (stereo partly drawn) [Example 341]
0.124 µM,–,–,–,0.01 µM,–,94%,50%,–,O=C1CCC(N2Cc3cc(C[C@H]4CCCC[C@@H]4NC4CCC(F)(F)CC4)c(F)cc3C2=O)C(=O)N1 (stereo partly drawn) [Example 350]
0.03 µM,–,–,–,0.003 µM,–,93%,32%,–,O=C1CCC(N2Cc3cc(C[C@H]4CC[C@@H](F)C[C@@H]4NC4CCC(F)(F)CC4)ccc3C2=O)C(=O)N1 (stereo partly drawn) [Example 354]
> 1 µM,–,–,–,0.008 µM,–,96%,–,–,O=C1CC[C@H](N2Cc3c(ccc(C[C@H]4OCCC[C@@H]4N[C@H]4CC[C@@H](C(F)F)CC4)c3F)C2=O)C(=O)N1 [Example 368]
0.048 µM,–,–,–,0.004 µM,–,99%,65%,–,O=C1CCC(N2Cc3cc(C[C@H]4CCCC[C@@H]4NC4CCc5c(C(F)(F)F)n[nH]c5C4)ccc3C2=O)C(=O)N1 (stereo partly drawn) [Example 375]
0.044 µM,–,–,–,0.003 µM,–,96%,62%,–,O=C1CCC(N2Cc3cc(C[C@H]4CCCC[C@@H]4NC4CCC(c5ccccn5)CC4)ccc3C2=O)C(=O)N1 (stereo partly drawn) [Example 379]
> 1 µM,–,–,–,0.4 µM,–,71%,–,–,O=C1CCC(N2Cc3cc(C[C@H]4CCCC[C@@H]4NC4CCC(n5cnnc5)CC4)ccc3C2=O)C(=O)N1 (stereo partly drawn) [Example 380]
0.108 µM,–,–,–,0.207 µM,–,65%,29%,–,"C=C1CC[C@H](N)[C@@H](Cc2ccc3c(c2)CN(C2CCC(=O)NC2=O)C3=O)C1 (stereo partly drawn) [Example 381, 3-(5-(((1R,2S)-2-amino-5-methylenecyclohexyl)methyl)-1-oxoisoindolin-2-yl)piperidine-2,6-dione]"
